Tests used:
Details in all cases: 72 h
Caco-2 [1] = test: cell viability relative to DMSO; higher = less toxic
Calu-3 [2] = test: as above
HepG2 [3] = test: as above
U2OS [4] = test: as above
Vero E6 [5] = test: as above
Calu-3 [6] = test: relative viability EC50 (midpoint between 100% and the lowest measured viability); higher = less toxic
HepG2 [7] = test: as above
U2OS [8] = test: as above
Vero E6 [9] = test: as above
Caco-2 [10] = test: drug sensitivity score (DSS) for viability; higher = more toxic; extreme values may be limits of the assay
Calu-3 [11] = test: as above
HepG2 [12] = test: as above
U2OS [13] = test: as above
Vero E6 [14] = test: as above
Caco-2 [15] = test: relative viability EC50 (midpoint between 100% and the lowest measured viability); higher = less toxic

Row | Compound | cell viability (Caco-2 [1]; 1 nM) [%] | cell viability (Caco-2 [1]; 10 nM) [%] | cell viability (Caco-2 [1]; 100 nM) [%] | cell viability (Caco-2 [1]; 1000 nM) [%] | cell viability (Caco-2 [1]; 10000 nM) [%] | cell viability (Calu-3 [2]; 1 nM) [%] | cell viability (Calu-3 [2]; 10 nM) [%] | cell viability (Calu-3 [2]; 100 nM) [%] | cell viability (Calu-3 [2]; 1000 nM) [%] | cell viability (Calu-3 [2]; 10000 nM) [%] | cell viability (HepG2 [3]; 1 nM) [%] | cell viability (HepG2 [3]; 10 nM) [%] | cell viability (HepG2 [3]; 100 nM) [%] | cell viability (HepG2 [3]; 1000 nM) [%] | cell viability (HepG2 [3]; 10000 nM) [%] | cell viability (U2OS [4]; 1 nM) [%] | cell viability (U2OS [4]; 10 nM) [%] | cell viability (U2OS [4]; 100 nM) [%] | cell viability (U2OS [4]; 1000 nM) [%] | cell viability (U2OS [4]; 10000 nM) [%] | cell viability (Vero E6 [5]; 1 nM) [%] | cell viability (Vero E6 [5]; 10 nM) [%] | cell viability (Vero E6 [5]; 100 nM) [%] | cell viability (Vero E6 [5]; 1000 nM) [%] | cell viability (Vero E6 [5]; 10000 nM) [%] | relative viability EC50 (Calu-3 [6]) [µM] | relative viability EC50 (HepG2 [7]) [µM] | relative viability EC50 (U2OS [8]) [µM] | relative viability EC50 (Vero E6 [9]) [µM] | drug sensitivity score (Caco-2 [10]) | drug sensitivity score (Calu-3 [11]) | drug sensitivity score (HepG2 [12]) | drug sensitivity score (U2OS [13]) | drug sensitivity score (Vero E6 [14]) | relative viability EC50 (Caco-2 [15]) [µM]
1 | Cc1cn2nc([C@@H]3CCCCN3C(=O)c3cc(Cl)ccc3NS(C)(=O)=O)cc2nc1N1CC[C@H](N)C1 [presatovir] | 93.8 | 95.2 | 102 | 96.2 | 53.9 | 102 | 107 | 102 | 94 | 98.5 | 98.8 | 110 | 104 | 106 | 105 | 101 | 97 | 100 | 98.3 | 76.6 | 98.8 | 103 | 94.4 | 96.8 | 102 | > 10 | > 10 | > 10 | > 10 | 3 | 0 | 0 | 1.1 | 0 | –
2 | O=C(/C=C/c1ccccc1)NC(NC(=S)Nc1cccc2cccnc12)C(Cl)(Cl)Cl (centres undefined) [salubrinal] | 126 | 102 | 96.7 | 103 | 80.1 | 99.4 | 100 | 97.6 | 109 | 87.1 | 107 | 111 | 99.1 | 101 | 108 | 98.3 | 107 | 101 | 102 | 91.1 | – | – | – | – | – | > 10 | > 10 | > 10 | – | 0.4 | 0 | 0 | 0 | – | > 10
3 | CNC(=O)[C@H](Cc1ccccc1)NC(=O)[C@H](CC(C)C)[C@H](CSc1cccs1)C(=O)NO [batimastat] | 94.1 | 105 | 92.8 | 94.2 | 85 | 92.9 | 96.2 | 89.4 | 82.9 | 65.5 | 98.2 | 95.6 | 99 | 90.9 | 93.6 | 94.3 | 105 | 97 | 98.4 | 90.1 | 93.4 | 97.7 | 92.3 | 84.4 | 83.8 | – | > 10 | > 10 | > 10 | 0.3 | 3.8 | 0 | 0 | 1.4 | > 10
4 | Clc1ccc(C(Cn2ccnc2)OCc2c(Cl)cccc2Cl)c(Cl)c1 (centres undefined) [isoconazole] | 97 | 96.4 | 96.8 | 100 | 71.7 | 95.8 | 97.9 | 105 | 98.5 | 84.2 | – | – | – | – | – | 104 | 103 | 122 | 110 | 92 | 102 | 101 | 97.7 | 95.7 | 101 | > 10 | – | > 10 | > 10 | 1.2 | 0.4 | – | 0 | 0 | –
5 | CC(C)c1cc(C(C)C)c(CC(=O)NS(=O)(=O)Oc2c(C(C)C)cccc2C(C)C)c(C(C)C)c1 [avasimibe] | 90.3 | 96.3 | 91 | 106 | 72.3 | 92.2 | 104 | 99.1 | 98.8 | 102 | 102 | 108 | 106 | 97.6 | 79.4 | 97.6 | 98.7 | 95.4 | 99.7 | 92.3 | 100 | 94.8 | 93.2 | 94.4 | 81 | > 10 | > 10 | > 10 | > 10 | 0.8 | 0 | 1 | 0 | 0.6 | –
6 | N[C@@H](CCC(=O)N[C@@H](CS)C(=O)NCC(=O)O)C(=O)O [glutathione] | 92.7 | 90.7 | 105 | 93.6 | 99.4 | 98.1 | 93.2 | 98.8 | 101 | 99.7 | 108 | 106 | 97.3 | 99.3 | 104 | 95.3 | 97.3 | 99.5 | 96.6 | 102 | – | – | – | – | – | > 10 | > 10 | > 10 | – | 0 | 0 | 0 | 0 | – | > 10
7 | O=C1c2ccc(Nc3ccc(F)cc3F)cc2CCc2ccc(OC[C@H](O)CO)cc21 [skepinone-L] | 103 | 84.1 | 89.2 | 91.7 | 73.4 | 97.2 | 94 | 96.2 | 101 | 94.7 | 102 | 109 | 98.8 | 101 | 75.2 | 96.5 | 91.8 | 91.4 | 90.2 | 89.5 | 103 | 103 | 86.8 | 89.4 | 80.3 | > 10 | > 10 | > 10 | > 10 | 2.5 | 0 | 0.8 | 0.1 | 1.9 | –
